In patent publication US20260151360A1, “ENDOXIFEN COMPOSITIONS AND METHODS OF USE THEREOF AND SYNTHESIS THEREOF” (Atossa Therapeutics, Inc., priority 2023, published 2026):
Like-named read-outs stand apart in the source and are kept apart here.

Tests used:
[1] = Plasma pharmacokinetics of endoxifen after administration of the compositions; type: in vivo; settings: for AUC(0-t): read-out: mean AUC24hr; for half-life: endoxifen released from a composition disclosed herein
[2] = (Z)-Endoxifen solubility in dissolution media (pH 6.8 buffer with and without Polysorbate 80); type: physicochemical
Experimental: This example describes development of a dissolution assay to measure dissolution of endoxifen formulations. […] Polysorbate 80 (PS80), a nonionic surfactant, was added in varying concentrations to improve solubility and mimic an intestinal environment. Surfactants, such as polysorbate 80, create micelles in the medium that mimic the bile acid aggregates in the small intestine. These micelles facilitate the diffusion and transport of product into the medium.

[3] = cited from earlier work

For `CC/C(=C(\c1ccc(O)cc1)c1ccc(OCCNC)cc1)c1ccccc1` [(Z)-endoxifen], the AUC(0-t) ([1]; human, plasma, Day 1 of initial (first) dose, composition comprising 1 mg to 4 mg of (Z)-endoxifen) was 150 to 600 ng·h/mL, the AUC(0-t) ([1]; human, plasma, Day 21, compositions comprising 1 mg to 4 mg of (Z)-endoxifen) was 400 to 2500 ng·h/mL and the AUC(0-inf) ([1]; human, plasma, dosing range of 1 mg to 4 mg of (Z)-endoxifen) was 400 to 6000 ng·h/mL.

For `CC/C(=C(\c1ccc(O)cc1)c1ccc(OCCNC)cc1)c1ccccc1` [endoxifen, 4-hydroxy-N-desmethyl-tamoxifen], the “solubility as a function of pH” value [2] was “decreases as pH becomes less acidic”, the “day by which steady state plasma levels are achieved” value ([1]; daily administration of a composition) was no more than 7 days and the half-life ([1]; human, plasma, read-out: mean half-life) was 40 to 53 h. For the same compound, the half-life ([1]; human, plasma, read-out: terminal elimination half-life) was 30 to 60 h.

In the case of `CC/C(=C(\c1ccccc1)c1ccc(OCCN(C)C)cc1)c1ccccc1` [tamoxifen, (Z)-2-[4-(1,2-diphenyl-1-butenyl)phenoxy]-N,N-dimethylethanamine], the Terminal elimination half-life ([3]; Jordan C. Steroids 2007) is listed as 120 to 170 h, the peak concentration time ([3]; post-dose) is listed as “approximately 5 hours” and the “Reported therapeutic levels of plasma tamoxifen” value ([3]; subjects dosed with 20 mg of oral tamoxifen (Lyon et al. 2012)) is listed as no less than 30 nM.
